Holding throughout (assay type): cell-based
For one assay, the target named is T1, SMARCA4 (Homo sapiens, UniProt P51532).
T1 construct: endogenous in cells; host or cells: VCaP (ATCC CRL-2876)
The assay can be described thus: SMARCA4 degradation in VCaP cells by Western blot. As to conditions: at 100 nM; for Percent SMARCA4 degradation at 0.1 µM: VCaP, 16 h; for Percent degradation SMARCA4: 16 hours. The protocol:
(§1) Example-P2: Determination of SMARCA2 and SMARCA4 Degradation in VCaP Cells by Western Blot
(§2) VCaP (ATCC CRL-2876) was plated in 6 well plates using complete Dulbecco's Modified Eagle's Medium. On the third day, compounds of present invention were added to cells from 10 mM stocks made in DMSO (Sigma Cat no. D2650). Each compound was tested at 100 nM concentration with DMSO not exceeding final percentage of 0.3 in the cells. Cells were incubated with the compound for 16 hours followed by harvesting with 1×RIPA lysis buffer (Thermo Fischer, catalogue number #89900) containing protease inhibitor cocktail (Sigma catalogue number #P-8340). Equal amount of protein was loaded on SDS PAGE gel for electrophoresis. Western blot was carried out for detection of either SMARCA2 (Cell signalling technologies, catalogue number #11966) or SMARCA4 antibody (Cell signalling technologies, catalogue number #52251). Beta-Tubulin antibody (Cell signalling technologies, catalogue number #86298) was used as loading control. Percentage of SMARCA2 or SMARCA4 degradation was calculated by using formula: […]

For another assay, the system named is VCaP cells. Kind of assay: Anti proliferative activity in VCaP cell line by CellTiter Glo assay. The settings on record: Homo sapiens; for EC50: VCaP, 192 h, 8 days incubation, CellTiter Glo luminescence. As for the experimental part: Example-P1: Determination of Anti Proliferative Activity of Compounds in Cell Lines VCaP by Cell Titer Glo©(Promega) Assay
VCaP (ATCC CRL-2876) cells were seeded in 96 well plate flat black clear bottom plates (Corning, Cat. No 3904) using complete DMEM Medium. Next day, compounds listed in the present invention were added to cells from 10 mM stocks made in DMSO (Sigma Cat no. D2650). Each concentration of compound was tested in triplicate with DMSO concentration at a final percentage not exceeding 0.3 in the cells. After the incubation of VCaP cells with compound for 8 days assay was terminated using 50 μl of CellTiter Glo© reagent (Promega, Cat. no G7572). CellTiter-Glo® Luminescent reagent determines the number of viable cells based on quantitation of ATP present which is an indicator of cell number and metabolic activity. Luminescence readings were taken in Victor-3 instrument. Percent inhibition of proliferation was calculated using formula, % inhibition=100−(luminescence value of test/luminescence value of DMSO control)*100. DMSO control (0%)=Cells in complete media with DMSO; blank=Media alone containing DMSO. EC50 was calculated using graph pad prism software.
Herein the group “A” refers to EC50 values lower than l0 nM, group “B” refers to EC50 values between l0 nM-100 nM (both inclusive) and group “C” refers to EC50 values greater than 100 nM.

The next assay concerns the target T2, SMARCA2 (Homo sapiens, UniProt P51531).
T2 construct: endogenous in cells; host or cells: VCaP (ATCC CRL-2876)
The assay can be described thus: SMARCA2 degradation in VCaP cells by Western blot. As to conditions: at 100 nM, 16 hours. The protocol:
as §1, §2

T2 sequence (P51531 whole entry): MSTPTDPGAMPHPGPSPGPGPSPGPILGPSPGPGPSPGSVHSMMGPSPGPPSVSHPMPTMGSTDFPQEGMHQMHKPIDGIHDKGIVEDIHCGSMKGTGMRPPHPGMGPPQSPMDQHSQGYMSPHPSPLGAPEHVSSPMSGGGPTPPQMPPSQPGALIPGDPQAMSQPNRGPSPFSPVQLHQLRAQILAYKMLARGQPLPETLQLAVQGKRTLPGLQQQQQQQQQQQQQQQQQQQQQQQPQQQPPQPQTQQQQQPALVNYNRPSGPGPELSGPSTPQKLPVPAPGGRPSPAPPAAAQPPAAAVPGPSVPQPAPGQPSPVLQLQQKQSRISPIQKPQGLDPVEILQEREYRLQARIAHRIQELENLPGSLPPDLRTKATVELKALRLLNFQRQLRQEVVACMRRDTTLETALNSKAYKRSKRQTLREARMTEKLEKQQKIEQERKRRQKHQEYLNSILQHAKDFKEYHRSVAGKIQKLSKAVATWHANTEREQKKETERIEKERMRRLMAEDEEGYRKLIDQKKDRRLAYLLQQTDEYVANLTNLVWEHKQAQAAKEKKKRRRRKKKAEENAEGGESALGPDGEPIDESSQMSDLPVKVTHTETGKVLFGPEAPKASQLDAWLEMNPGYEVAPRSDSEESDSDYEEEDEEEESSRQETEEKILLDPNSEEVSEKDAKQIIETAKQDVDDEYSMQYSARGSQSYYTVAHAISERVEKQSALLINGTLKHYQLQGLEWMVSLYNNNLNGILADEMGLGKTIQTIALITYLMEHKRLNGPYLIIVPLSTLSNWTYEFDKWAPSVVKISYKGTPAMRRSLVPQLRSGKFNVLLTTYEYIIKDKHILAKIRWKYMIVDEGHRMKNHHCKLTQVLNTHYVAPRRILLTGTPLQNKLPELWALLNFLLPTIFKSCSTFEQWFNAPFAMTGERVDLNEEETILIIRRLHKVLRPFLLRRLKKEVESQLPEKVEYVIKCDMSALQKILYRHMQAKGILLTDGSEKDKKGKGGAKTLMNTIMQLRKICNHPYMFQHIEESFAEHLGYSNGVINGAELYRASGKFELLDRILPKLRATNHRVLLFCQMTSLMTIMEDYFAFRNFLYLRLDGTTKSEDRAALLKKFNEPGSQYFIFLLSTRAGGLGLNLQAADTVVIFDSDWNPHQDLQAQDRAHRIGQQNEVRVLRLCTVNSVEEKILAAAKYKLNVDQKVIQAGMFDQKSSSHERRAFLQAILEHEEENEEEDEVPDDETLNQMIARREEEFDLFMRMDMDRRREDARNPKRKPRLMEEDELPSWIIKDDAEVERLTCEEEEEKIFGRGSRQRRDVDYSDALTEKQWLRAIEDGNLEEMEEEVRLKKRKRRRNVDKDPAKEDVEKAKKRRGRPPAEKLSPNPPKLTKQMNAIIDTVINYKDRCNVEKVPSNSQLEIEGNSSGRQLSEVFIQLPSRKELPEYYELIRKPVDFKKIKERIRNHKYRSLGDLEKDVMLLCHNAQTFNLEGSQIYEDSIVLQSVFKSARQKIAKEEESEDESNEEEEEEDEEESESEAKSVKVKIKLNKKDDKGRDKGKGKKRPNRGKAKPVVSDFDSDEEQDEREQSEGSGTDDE
T1 sequence (P51532 whole entry): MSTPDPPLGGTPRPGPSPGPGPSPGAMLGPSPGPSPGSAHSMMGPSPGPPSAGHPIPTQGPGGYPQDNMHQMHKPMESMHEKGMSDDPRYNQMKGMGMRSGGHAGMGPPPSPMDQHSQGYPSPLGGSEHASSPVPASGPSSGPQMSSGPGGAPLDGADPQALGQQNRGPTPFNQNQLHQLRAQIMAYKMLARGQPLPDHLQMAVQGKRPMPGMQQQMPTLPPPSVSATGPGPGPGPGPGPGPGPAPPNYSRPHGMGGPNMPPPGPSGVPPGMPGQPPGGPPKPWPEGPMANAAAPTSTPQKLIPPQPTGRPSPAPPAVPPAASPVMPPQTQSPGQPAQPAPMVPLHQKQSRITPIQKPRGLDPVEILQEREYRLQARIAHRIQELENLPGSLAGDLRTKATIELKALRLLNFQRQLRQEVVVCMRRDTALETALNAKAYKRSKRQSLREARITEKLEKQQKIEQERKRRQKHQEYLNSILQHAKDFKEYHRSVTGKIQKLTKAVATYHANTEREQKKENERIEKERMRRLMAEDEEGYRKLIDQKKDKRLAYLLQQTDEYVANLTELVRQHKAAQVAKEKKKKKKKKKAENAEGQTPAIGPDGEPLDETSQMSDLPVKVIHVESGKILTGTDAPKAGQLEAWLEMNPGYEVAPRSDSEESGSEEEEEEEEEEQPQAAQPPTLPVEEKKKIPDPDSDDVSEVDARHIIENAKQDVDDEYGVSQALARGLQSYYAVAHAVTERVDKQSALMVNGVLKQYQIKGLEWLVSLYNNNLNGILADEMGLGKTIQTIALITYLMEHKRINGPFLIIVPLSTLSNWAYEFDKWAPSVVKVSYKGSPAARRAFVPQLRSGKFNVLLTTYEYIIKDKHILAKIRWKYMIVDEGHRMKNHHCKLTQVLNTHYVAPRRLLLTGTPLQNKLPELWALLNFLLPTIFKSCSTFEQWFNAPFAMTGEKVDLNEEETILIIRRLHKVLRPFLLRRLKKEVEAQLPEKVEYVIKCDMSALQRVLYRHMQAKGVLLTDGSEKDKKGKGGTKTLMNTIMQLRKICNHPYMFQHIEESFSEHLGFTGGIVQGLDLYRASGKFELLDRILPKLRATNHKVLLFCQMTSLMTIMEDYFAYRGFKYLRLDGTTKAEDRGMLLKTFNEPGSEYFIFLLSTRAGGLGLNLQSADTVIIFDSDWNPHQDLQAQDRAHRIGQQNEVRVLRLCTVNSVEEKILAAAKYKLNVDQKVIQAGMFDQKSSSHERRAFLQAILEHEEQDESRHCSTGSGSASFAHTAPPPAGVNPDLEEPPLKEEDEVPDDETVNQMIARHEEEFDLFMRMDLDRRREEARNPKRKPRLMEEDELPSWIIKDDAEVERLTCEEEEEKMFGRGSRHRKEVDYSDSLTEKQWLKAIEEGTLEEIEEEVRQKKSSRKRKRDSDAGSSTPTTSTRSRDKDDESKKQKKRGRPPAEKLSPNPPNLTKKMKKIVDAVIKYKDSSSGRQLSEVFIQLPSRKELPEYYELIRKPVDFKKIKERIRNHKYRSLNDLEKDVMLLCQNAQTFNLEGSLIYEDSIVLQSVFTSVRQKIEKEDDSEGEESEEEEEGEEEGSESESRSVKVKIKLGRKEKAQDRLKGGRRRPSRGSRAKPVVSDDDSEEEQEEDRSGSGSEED

Regarding `Cc1ncsc1-c1ccc([C@H](C)NC(=O)[C@@H]2C[C@@H](O)CN2C(=O)[C@@H](NC(=O)CN2CCC(c3ccc(-c4cc(-c5ccccc5O)nnc4N)cc3)C2)C(C)(C)C)cc1` (stereo partly drawn) [Compound 51, (2S,4R)-1-((2S)-2-(2-(3-(4-(3-amino-6-(2-hydroxyphenyl)pyridazin-4-yl)phenyl)pyrrolidin-1-yl)acetamido)-3,3-dimethylbutanoyl)-4-hydroxy-N-((S)-1-(4-(4-methylthiazol-5-yl)phenyl)ethyl)pyrrolidine-2-carboxamide], the Percent SMARCA4 degradation at 0.1 µM at SMARCA4 worked out at 24%. In the assay on VCaP cells, this compound had an EC50 of 10 to 100 nM. For the same compound, on SMARCA2, the “Percent degradation SMARCA2” value came to 95%.

Compound `Cc1ncsc1-c1ccc([C@H](C)NC(=O)[C@@H]2C[C@@H](O)CN2C(=O)[C@@H](NC(=O)CN2CCN(c3ccc(-c4cc(-c5ccccc5O)nnc4N)cc3)CC2)C(C)(C)C)cc1` [Compound 12, (2S,4R)-1-((S)-2-(2-(4-(4-(3-amino-6-(2-hydroxyphenyl)pyridazin-4-yl)phenyl)piperazin-1-yl)acetamido)-3,3-dimethylbutanoyl)-4-hydroxy-N—((S)-1-(4-(4-methylthiazol-5-yl)phenyl)ethyl)pyrrolidine-2-carboxamide] showed a Percent SMARCA4 degradation at 0.1 µM on SMARCA4 of 54%. In the assay on VCaP cells, this compound gave an EC50 of less than 10 nM. Moreover, the “Percent degradation SMARCA2” value on SMARCA2 worked out at 98%.

`Cc1ncsc1-c1ccc([C@H](C)NC(=O)[C@@H]2C[C@@H](O)CN2C(=O)[C@@H](NC(=O)CN2CCC(Oc3ccc(-c4cc(-c5ccccc5O)nnc4N)cc3)CC2)C(C)(C)C)cc1` [Compound 53, (2S,4R)-1-((S)-2-(2-(4-(4-(3-amino-6-(2-hydroxyphenyl)pyridazin-4-yl)phenoxy)piperidin-1-yl)acetamido)-3,3-dimethylbutanoyl)-4-hydroxy-N-((S)-1-(4-(4-methylthiazol-5-yl)phenyl)ethyl)pyrrolidine-2-carboxamide] had a Percent SMARCA4 degradation at 0.1 µM on SMARCA4 of 89%. In the assay with VCaP cells, the EC50 was less than 10 nM. Besides, the “Percent degradation SMARCA2” value on SMARCA2 is recorded as 98%.

As to `Cc1ncsc1-c1ccc([C@H](C)NC(=O)[C@@H]2C[C@@H](O)CN2C(=O)C(c2cc(-c3ccc(-c4cc(-c5ccc[nH]c5=O)nnc4N)cc3)no2)C(C)C)cc1` (some centres unmarked) [Compound 17], the “Percent degradation SMARCA4” value at SMARCA4 is 35%. In addition, at SMARCA2, the “Percent degradation SMARCA2” value is 7%.

`Cc1ncsc1-c1ccc([C@H](C)NC(=O)[C@@H]2C[C@@H](O)CN2C(=O)[C@@H](NC(=O)CN2CCN(c3ccc(-c4cc(-c5ccccc5F)nnc4N)cc3)CC2)C(C)(C)C)cc1` [Compound 27, (2S,4R)-1-((S)-2-(2-(4-(4-(3-amino-6-(2-fluorophenyl)pyridazin-4-yl)phenyl)piperazin-1-yl)acetamido)-3,3-dimethylbutanoyl)-4-hydroxy-N—((S)-1-(4-(4-methylthiazol-5-yl)phenyl)ethyl)pyrrolidine-2-carboxamide] displayed a Percent SMARCA4 degradation at 0.1 µM on SMARCA4 of 47%. For the same compound, the “Percent degradation SMARCA2” value on SMARCA2 is 59%.

`Cc1ncsc1-c1ccc([C@H](C)NC(=O)[C@@H]2C[C@@H](O)CN2C(=O)[C@@H](NC(=O)COc2ccc(-c3cc(-c4cc(F)ccc4O)nnc3N)cc2)C(C)(C)C)cc1` [Compound 1, (2S,4R)-1-((S)-2-(2-(4-(3-amino-6-(5-fluoro-2-hydroxyphenyl)pyridazin-4-yl)phenoxy)acetamido)-3,3-dimethylbutanoyl)-4-hydroxy-N—((S)-1-(4-(4-methylthiazol-5-yl)phenyl)ethyl)pyrrolidine-2-carboxamide]: the half-maximal effective concentration (EC50) in the assay with VCaP cells was 10 to 100 nM.

As to `Cc1ncsc1-c1ccc([C@H](C)NC(=O)[C@@H]2C[C@@H](O)CN2C(=O)[C@@H](NC(=O)CC2CCC(c3ccc(-c4cc(-c5ccccc5O)nnc4N)cc3)CC2)C(C)(C)C)cc1` (single isomer, unassigned) [Compound 45], the “Percent degradation SMARCA4” value at SMARCA4 came to 92%. Besides, at SMARCA2, the “Percent degradation SMARCA2” value came out at 97%.

In turn, `Cc1ncsc1-c1ccc([C@H](C)NC(=O)[C@@H]2C[C@@H](O)CN2C(=O)C(N2CCC(N3CCN(c4ccc(-c5cc(-c6ccccc6O)nnc5N)cc4)CC3)CC2)C(C)(C)C)cc1` (stereo partly drawn) [Compound 60, (2S,4R)-1-(2-(4-(4-(4-(3-amino-6-(2-hydroxyphenyl)pyridazin-4-yl)phenyl)piperazin-1-yl)piperidin-1-yl)-3,3-dimethylbutanoyl)-4-hydroxy-N—((S)-1-(4-(4-methylthiazol-5-yl)phenyl)ethyl)pyrrolidine-2-carboxamide] showed an EC50 in the assay on VCaP cells of more than 100 nM. For the same compound, in the assay on VCaP cells (at 1 μM, read-out: % inhibition of proliferation), the inhibition at 1 µM was 20%.

Regarding `Cc1ncsc1-c1ccc([C@H](C)NC(=O)[C@@H]2C[C@@H](O)CN2C(=O)[C@@H](NC(=O)CN2CCC(c3ccc(-c4cc(-c5ccccc5O)nnc4N)cc3)CC2C)C(C)(C)C)cc1` (single isomer, unassigned) [Compound 37], the “Percent degradation SMARCA4” value on SMARCA4 came to 97%. Moreover, on SMARCA2, the “Percent degradation SMARCA2” value is given as 100%.

For `Cc1ncsc1-c1ccc([C@H](C)NC(=O)[C@@H]2C[C@@H](O)CN2C(=O)C(c2cc(N3CCC(N4CCN(c5ccc(-c6cc(-c7ccccc7O)nnc6N)cc5)CC4)CC3)no2)C(C)C)cc1` (stereo partly drawn) [Compound 59, (2S,4R)-1-(2-(3-(4-(4-(4-(3-amino-6-(2-hydroxyphenyl)pyridazin-4-yl)phenyl)piperazin-1-yl)piperidin-1-yl)isoxazol-5-yl)-3-methylbutanoyl)-4-hydroxy-N—((S)-1-(4-(4-methylthiazol-5-yl)phenyl)ethyl)pyrrolidine-2-carboxamide], the EC50 in the assay on VCaP cells is less than 10 nM.

At SMARCA4, `Cc1ncsc1-c1ccc([C@H](C)NC(=O)[C@@H]2C[C@@H](O)CN2C(=O)[C@@H](NC(=O)Cn2cc(-c3ccc(-c4cc(-c5ccccc5O)nnc4N)cc3)cn2)C(C)(C)C)cc1` [Compound 49, (2S,4R)-1-((S)-2-(2-(4-(4-(3-amino-6-(2-hydroxyphenyl)pyridazin-4-yl)phenyl)-1H-pyrazol-1-yl)acetamido)-3,3-dimethylbutanoyl)-4-hydroxy-N-((S)-1-(4-(4-methylthiazol-5-yl)phenyl)ethyl)pyrrolidine-2-carboxamide] displayed a Percent SMARCA4 degradation at 0.1 µM of 0%. For the same compound, on SMARCA2, the “Percent degradation SMARCA2” value came to 66%.

`Cc1ncsc1-c1ccc([C@H](C)NC(=O)[C@@H]2C[C@@H](O)CN2C(=O)[C@@H](NC(=O)CN2CCC(N(C)c3ccc(-c4cc(-c5ccccc5O)nnc4N)cc3)CC2)C(C)(C)C)cc1` [Compound 55, (2S,4R)-1-((S)-2-(2-(4-((4-(3-amino-6-(2-hydroxyphenyl)pyridazin-4-yl)phenyl)(methyl)amino)piperidin-1-yl)acetamido)-3,3-dimethylbutanoyl)-4-hydroxy-N—((S)-1-(4-(4-methylthiazol-5-yl)phenyl)ethyl)pyrrolidine-2-carboxamide]: at SMARCA4, the Percent SMARCA4 degradation at 0.1 µM stood at 71%. Moreover, the “Percent degradation SMARCA2” value at SMARCA2 came to 99%.

On SMARCA4, `Cc1ncsc1-c1ccc([C@H](C)NC(=O)[C@@H]2C[C@@H](O)CN2C(=O)[C@@H](NC(=O)CN2CCC(Nc3ccc(-c4cc(-c5ccccc5O)nnc4N)cc3)CC2)C(C)(C)C)cc1` [Compound 54, (2S,4R)-1-((S)-2-(2-(4-((4-(3-amino-6-(2-hydroxyphenyl)pyridazin-4-yl)phenyl)amino)piperidin-1-yl)acetamido)-3,3-dimethylbutanoyl)-4-hydroxy-N—((S)-1-(4-(4-methylthiazol-5-yl)phenyl)ethyl)pyrrolidine-2-carboxamide] returned a Percent SMARCA4 degradation at 0.1 µM of 97%. The “Percent degradation SMARCA2” value on SMARCA2 is reported as 99%.

On SMARCA4, `COc1ncccc1-c1cc(-c2ccc(N3CCN(CC(=O)N[C@H](C(=O)N4C[C@H](O)C[C@H]4C(=O)N[C@@H](C)c4ccc(-c5scnc5C)cc4)C(C)(C)C)CC3)cc2)c(N)nn1` [Compound 15, (2S,4R)-1-((S)-2-(2-(4-(4-(3-amino-6-(2-methoxypyridin-3-yl)pyridazin-4-yl)phenyl)piperazin-1-yl)acetamido)-3,3-dimethylbutanoyl)-4-hydroxy-N—((S)-1-(4-(4-methylthiazol-5-yl)phenyl)ethyl)pyrrolidine-2-carboxamide] displayed a Percent SMARCA4 degradation at 0.1 µM of 16%. In addition, the “Percent degradation SMARCA2” value on SMARCA2 stood at 8%.
